Our source for the melting point values is a melting point compilation (Tetko et al.; mined from patent text by program, amines drawn as free bases though some values may be those of a salt).

Structures are written as SMILES.

As usually defined, the melting point is the temperature of the solid-liquid transition. Molecule `CCC(=O)c1cnc2c(OCCO)cccc2c1Nc1ccc(F)cc1C` gave a melting point of 170 to 172 °C.
In the case of `CC(=O)OCCCC(=C(c1ccccc1)c1ccccc1)c1ccccc1` it was 80 to 81 °C.
In the case of `CC(=O)c1cc(-c2ccc(C)cc2)c2c(c1)C(C)(C)CCC2(C)C` it was 102 °C; in that of `N#CCCNC(=O)C1=CC(CF)(CF)Oc2ccc(Cl)cc21`, 134 to 136 °C; in that of `CCOC(=O)N1CCC(=C2c3ccc(Cl)cc3SCc3cccnc32)CC1`, 154 to 157 °C.
In the case of `N#CCCc1cccc(-c2ccc3cnc(Nc4ccc5c(c4)CCC(N4CCOCC4)CC5)nn23)c1` (centres undefined) it was 184 to 186 °C; in that of `COCC(=O)Nc1c(Cl)c(Cl)cc2nc(OC)c(OC)nc12`, 171 to 173 °C.
For the molecule `Cc1ccc(C)n1-c1nc(S(=O)(=O)Nc2cccc(Cl)c2Cl)n[nH]1`, the melting point stood at 185 °C.
In the case of `CCc1[nH]n(C2CCCC2)c2nc(Cc3ccccn3)nc(=O)c1-2` it was 120 to 122 °C; in that of `O=C(O)c1cc(-c2ccccc2Cl)c[nH]c1=O`, 299 to 303 °C; in that of `COc1cnn(-c2cccc(CBr)c2)c(=O)c1OC`, 67 to 69 °C.
In the case of `O=C(NC1CCCC1)N1CCc2[nH]cnc2C1` it was 225 °C; in that of `CC(C)(O)C(=O)c1ccc(F)cc1`, 131 °C; in that of `Cc1cccc(N2CCC(N)=N2)c1`, 119 to 120 °C.
`COc1ccc(C2(O)OC(=O)C(c3cc(C)c4nsnc4c3)=C2Cc2cc(OC)c(OC3CCCCC3)c(OC)c2)cc1F` (centres undefined) had a melting point of 163 to 164 °C.
`CC(=O)Nc1cc2c(cc1O)CCN(Cc1ccccc1)CC2c1ccccc1` (centres undefined): the melting point is 180 °C.
In the case of `N#Cc1cccc(-c2ccccc2O)c1` it was 120 to 123 °C; in that of `CC(=O)c1cc(I)cc(S(N)(=O)=O)c1`, 188 to 189 °C; in that of `Fc1ccc(C=Nc2ccccc2)cc1`, 39 to 40 °C.
In the case of `CCOC(=O)C(C)(C)Oc1ccc(C(=O)Cc2ccccc2)cc1` it was 110 to 113 °C; in that of `C=CC(=O)OC(C)OC(=O)c1c2ccccc2cc2ccccc12` (centres undefined), 66 to 68 °C.
Molecule `CCCCNC(=O)NS(=O)(=O)c1cccc2c1OC(C)(C)C2` gave a melting point of 200 to 203 °C.
In the case of `NC(=O)c1nc(C2OC(CO)C(O)C2O)n[nH]1` (centres undefined), the melting point lay in the range of 193 to 195 °C.
As to `Cn1nc(C(=O)NCC2(O)CN3CCC2CC3)c2ccccc21` (centres undefined), the melting point was 147 to 149 °C.
In turn, `O=[N+]([O-])c1cccc(-n2cccn2)c1` registered a melting point of 85 to 87 °C.
Molecule `CC(C)(Oc1ccc(CCC(=O)c2cc(-c3ccc(C(F)(F)F)cc3)cs2)c(Cl)c1Cl)C(=O)O` came in with a melting point of 99 to 101 °C.
In the case of `COCC(O)c1nc2cc(Cl)ccc2c(O)c1C(=O)Nc1nccs1` (centres undefined) it was > 270 °C.
Consider `CCN1CCCC1CNC(=O)c1sc(CO)c(C)c1OC` (centres undefined), for which the melting point lay in the range of 118 to 119 °C.
In the case of `O=S(=O)(NCC1CCN(C[C@H]2COc3ccc(C(F)(F)F)cc3O2)CC1)c1cccc(Cl)c1Cl` it was 139 to 140 °C; in that of `CCOC(=O)c1cn(C)c2nc3c(F)c(N4CCNC(c5ccccc5)C4)c(F)cc3cc2c1=O` (racemic), 216 °C.
In the case of `COc1cc(C=CC(=O)CC(=O)C(F)(F)F)ccc1O` it was 97 to 100 °C; in that of `COc1cccc(NC(=O)NCc2nnc(C)n2-c2sc(C(=O)O)cc2C(=O)c2ccccc2Cl)c1`, 206 to 208 °C.
The molecule `CC(C)(C)OC(=O)NCc1cc(-c2cccnc2)n[nH]1` gave a melting point of 185 to 187 °C.
In the case of `CCCCCCCCCCCCc1ccc(S(=O)(=O)Cl)cc1` it was 33 to 35 °C; in that of `O=C1NCCc2cc(Br)ccc21`, 137 to 139 °C.
In the case of `COc1c(Cl)ccc(-c2cc(N)c(Cl)c(C(=O)NO)n2)c1F` it was 166 to 169 °C; in that of `CCCCCCCCCCCc1cc2ccc(C(=O)OC)cc2[nH]1`, 84 to 86 °C.
In the case of `COc1ccc(CCN2CC(COc3cccc4c(=O)[nH]ccc34)OC2=O)cc1OC` (centres undefined) it was 173 to 175 °C; in that of `O=C(OCC(Cl)(Cl)Cl)n1ccnc1`, 80 °C.
Molecule `CCNc1cc(C)c(S(=O)(=O)C[N+](=O)[O-])c(C)c1` displayed a melting point of 143 °C.
In turn, `COc1cc(OC)nc(NC(=O)NS(=O)(=O)c2cccc3sc(C)nc23)n1` displayed a melting point of 187 to 194 °C.
The molecule `Cc1ccc(C(C(=O)C(C)C)c2ccc(C)cc2)cc1` displayed a melting point of 48 to 51 °C.
In the case of `COc1ccc2c(c1)CCN(Cc1c[nH]c3ncccc13)C2` it was 144 to 146 °C; in that of `N#CCCNC(=O)C1=CC(CF)(CF)Oc2ccc(Br)cc21`, 140 to 142 °C.
In the case of `Cc1c(C(=O)O)cnn1-c1ccc(F)c(F)c1` it was 148 °C.
In the case of `CC(O)(CCCl)c1ccc(-c2cccc(Cl)c2)cc1` (centres undefined) it was 98 to 100 °C; in that of `CN1C(=O)CC2(CNC(=O)C2)C1=O` (centres undefined), 201 to 204 °C.
In the case of `O=c1c2c([nH]c3nc(N4CCCCC4)nn13)CCCS2`, the melting point was > 350 °C.
In the case of `CCOP(=O)(CC(=O)Nc1cc2c(Nc3ccc(Br)c(Br)c3)ncnc2cn1)OCC` it was 120 to 124 °C; in that of `COC(=O)c1ccc2nc3c(c(C)nn3-c3ccccn3)c(Cl)c2c1`, 199 to 200 °C; in that of `Nc1[nH]ncc1-c1nc(-c2ccco2)n[nH]1`, 175 to 176 °C.
In the case of `COc1ccc(Nc2nn3c(-c4ccc(OC)cc4)nnc3c3ccccc23)cc1` it was 301 to 304 °C.
In the case of `Cc1cc(O)c(S(=O)(=O)C(C)(C)C)c(=O)o1` it was 119 to 120 °C; in that of `O=C(NCCSCc1cccc(Br)c1)c1c(Br)cccc1Br`, 70 to 72 °C.
Molecule `COC(=O)CCCC(=O)c1ccc(CCNC(C)=O)cc1` yielded a melting point of 107 to 108 °C.
In the case of `COc1nc(Cl)cnc1NS(=O)(=O)c1cccnc1-c1ccc(CC(C)C)cc1`, the melting point was in the range of 156 to 157 °C.
In the case of `CC1(C)C2CCC1(C)C(O)(c1ccccn1)C2` (centres undefined) it was 60 to 61 °C.
In turn, `Fc1cc(F)c(-c2c(F)nnc(F)c2-c2ccc(Br)cc2)c(F)c1` yielded a melting point of 132 to 133 °C.
On to `O=S1(=O)CCN2C=C(F)C=C(c3ccc(Oc4ccccc4)cc3)C2=N1`, for which the melting point was in the range of 91.9 to 92 °C.
In turn, `CCCc1nc2cc(CC(=O)O)ccc2o1` returned a melting point of 67 to 68 °C.
`CCOC(=O)c1cccc(C=Cc2ccccc2)c1` returned a melting point of 82 °C.
With `Cn1cc(C(=O)NCC(=O)NCC2(O)CCC2)c(C(F)(F)F)n1`, the melting point is 210 °C.
In the case of `CCCN=C(N)Nc1ccnc(OCCCO)n1` it was 183 to 184 °C; in that of `Oc1nc(-c2ccccc2)sc1CCc1ccccc1`, 127 to 128 °C.
As to `CN(CCCNC(=O)c1cc(Cl)cc2nc3ccccc3nc12)CCCNC(=O)c1cc(Cl)cc2nc3ccccc3nc12`, the melting point is 169 to 170 °C.
In the case of `CC(=NO)c1ccc(N2CC(CO)OC2=O)cc1` (centres undefined) it was 190 °C.
Molecule `Fc1cc(F)c2c(c1)CCC2n1cc[nH]c1=S` (centres undefined) displayed a melting point of 212 to 215 °C.
In the case of `C=CCC1(C(=O)OC)C(=O)Nc2ccccc2CC1c1ccc(OC)cc1` (centres undefined) it was 175 to 176 °C; in that of `CNC(=S)NC(c1ccccc1)c1ccccc1`, 152 to 154 °C.
Take `COC(=O)c1ccc(CCC(O)CCc2ccc(C(=O)OC)cc2)cc1`: the melting point was in the range of 129 to 130 °C.
In the case of `Cn1c(=O)c2c(nc(CCc3cccc(N)c3)n2C)n(C)c1=O` it was 158 to 160 °C; in that of `CCC(CC)C(NS(=O)(=O)c1ccc(Cl)c(Cl)c1)c1ccnn1-c1ccccc1` (centres undefined), 56 to 66 °C; in that of `Cc1ccccc1NC(C#N)c1c(Cl)cccc1Cl` (centres undefined), 108 °C.
As to `CSc1nc(-c2ccc(C#N)cc2)cn1-c1ccc(C#N)cc1`, the melting point fell in the range of 209 to 219 °C.
In the case of `COc1ccc(C(=O)Nc2ccc(C(=O)Nc3ccccc3)cc2)cc1C12CC3CC(CC(C3)C1)C2` it was 265 to 268 °C.
With `O=C(CCCN1CCOCC1)c1ccc2c(c1)Cc1cc(C(=O)CCCN3CCOCC3)ccc1-2`, the melting point was in the range of 166 to 168 °C.
`Cc1ccc(-n2nc(C(F)F)cc2-c2ccc(S(C)(=O)=O)cc2)cc1F` displayed a melting point of 161 to 162 °C.
In the case of `CCn1nc(C(=O)OC)cc1C` it was 165 to 168 °C; in that of `FC(F)(F)c1cc(Cl)c(-n2cccn2)c(Cl)c1`, 83 to 85 °C; in that of `CC(C)c1nn2ccccc2c1C(=O)C1CCCC1`, 106 to 110 °C.
As for `Oc1c2c(nc3ccc(C4CCCCC4)cc13)CCCC2`, the melting point fell in the range of 292 to 295 °C.
In the case of `FC(F)(F)c1nc(-c2ccc(Cl)cc2)c(-c2ccc(Cl)cc2)s1` it was 101 to 102 °C; in that of `CCOC(=O)c1c[nH]c2nc(N3CCN(C)CC3)ncc2c1=O`, 266 to 268 °C.
In the case of `CC(=O)NS(=O)(=O)c1ccc(-c2c(-c3cccc(F)c3)noc2C)cc1` it was 144 to 145 °C; in that of `CC(C#N)C(O)(Cn1cncn1)c1ccc(Cl)cc1Cl` (centres undefined), 164 °C.
For `O=C(c1cccs1)c1cnn2c(-c3cccc(NCc4ccc(Cl)cc4)c3)ccnc12`, the melting point was in the range of 149 to 152 °C.
In the case of `CNC(=O)ON=C1SCC(=O)N1CCOC` it was 153 to 155 °C.
In turn, `CC1N=CC=C(CS)C1(O)CC(=O)O` (centres undefined) returned a melting point of 185 to 187 °C.
In turn, `CC(C)(C)C(=O)C(CSc1ccc(Cl)cc1)n1cncn1` (centres undefined) yielded a melting point of 67 °C.
As to `CC(C)(C)c1ccc(CCC(O)CC2CCCCC2)cc1NC(=O)NCC1c2ccccc2Oc2ccccc21` (centres undefined), the melting point lay within 156 to 157 °C.
In the case of `CS(=O)(=O)c1ccc(C2=C(c3ccc(F)cc3)C(=O)OC2)cc1` it was 166 to 167 °C.
In the case of `O=C(N[C@H](Cc1ccccc1)C(=O)O)OCc1ccc2[nH]c(-c3ccccc3)cc2c1` it was 176 to 177 °C.
Turning to `CCC#CCCOc1ccc(/C=C/C(=O)Nc2ccccc2C(=O)O)cc1OC`, the melting point lay within 165 to 166 °C.
`COC(=O)c1ccc(CC(C)NCC(O)c2ccc(O)c(CO)c2)c(F)c1` (centres undefined): the melting point lay in the range of 97 to 100 °C.
